Several values for one entry are separate records, joined by “and”; a condition that tells them apart may be missing. Identical values can stand only once.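 How tested: cells in 96-well plates exposed to compound for 48 hours at five concentrations. The concentration for 50% growth inhibition is given as GI50. TGI is the concentration that stops growth completely.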
What was measured:
Test in all cases: inhibition of tumour cell growth, NCI panel, 48 h
SNB-75 CNS = tested on: SNB-75 CNS
SF-295 CNS = tested on: SF-295 CNS
UACC-62 melanoma = tested on: UACC-62 melanoma
HCC-2998 colon = tested on: HCC-2998 colon
IGROV1 ovarian = tested on: IGROV1 ovarian
LOX IMVI melanoma = tested on: LOX IMVI melanoma
UO-31 renal = tested on: UO-31 renal
HT29 colon = tested on: HT29 colon
HOP-92 NSCLC = tested on: HOP-92 NSCLC
HOP-62 NSCLC = tested on: HOP-62 NSCLC

Compound	GI50 (SNB-75 CNS)	TGI (SNB-75 CNS)	GI50 (SF-295 CNS)	TGI (SF-295 CNS)	GI50 (UACC-62 melanoma)	TGI (UACC-62 melanoma)	GI50 (HCC-2998 colon)	TGI (HCC-2998 colon)	GI50 (IGROV1 ovarian)	TGI (IGROV1 ovarian)	GI50 (LOX IMVI melanoma)	TGI (LOX IMVI melanoma)	GI50 (UO-31 renal)	TGI (UO-31 renal)	GI50 (HT29 colon)	TGI (HT29 colon)	GI50 (HOP-92 NSCLC)	TGI (HOP-92 NSCLC)	GI50 (HOP-62 NSCLC)	TGI (HOP-62 NSCLC)
CN1CCN(c2ccc(Nc3nc(N)c(C(=O)c4ccc5c(c4)OCCO5)s3)cc2)CC1	2.28 µM	6 µM	3.65 µM	10 µM	4.19 µM	9.35 µM	9.67 µM	> 19.6 µM	2.27 µM	9.27 µM	3.2 µM	7.21 µM	2.6 µM	8.02 µM	2.68 µM	11.7 µM	0.204 µM	3.5 µM	5.18 µM	13.2 µM
Nc1ncnc2c1c(-c1cccc(OCc3ccccc3)c1)cn2C1CC(CN2CCC2)C1 (stereo not given)	1.7 µM and 2.29 µM	4.86 µM and 8.46 µM	1.89 µM and 2.36 µM	3.93 µM and 5.63 µM	1.74 µM and 1.5 µM	3.58 µM and 3.33 µM	2.26 µM and 5.4 µM	10.6 µM and > 10 µM	3.32 µM and 4.84 µM	12.2 µM and > 10 µM	1.51 µM and 1.41 µM	3.02 µM and 3 µM	1.31 µM and 1.75 µM	4.34 µM and 9.79 µM	0.0575 µM and 0.173 µM	1.84 µM and 2.05 µM	0.0457 µM and 0.266 µM	0.837 µM and 3.82 µM	1.88 µM and 3.79 µM	8.33 µM and > 10 µM
